Structures are written as SMILES.

What all share (details): read-out: Km (mM) ^3; 50 mM Britton and Robinson buffer, pH 7.0, 30 °C
In one assay the test system is T0217. The experiment in a line: pNP release at […] nm. It is filed as biochemical, metagenome.
The next assay concerns T0220. The experiment in a line: pNP release at […] nm. The assay is classed as biochemical, metagenome.
For the next assay, the system named is T0216. In words: pNP release at […] nm. It is filed as biochemical, uncultured Flavobacteriaceae bacterium.
In a further assay the test system is T0218. The experiment in a line: pNP release at […] nm. The assay is classed as biochemical, metagenome.
The subject of assay [1] is T0215. In words: HPAEC-PAD. It is filed as biochemical, uncultured Marinifilaceae bacterium.
Another assay relates to T0199. In words: pNP release at […] nm. The assay is classed as biochemical, metagenome.
The subject of assay [2] is T0191. In words: HPAEC-PAD. It is filed as biochemical, uncultured Marinifilaceae bacterium.
Assay [3] concerns T0193. The experiment in a line: HPAEC-PAD. It is filed as biochemical, uncultured Flavobacteriaceae bacterium.
The next assay deals with T0207. The experiment in a line: pNP release at […] nm. The assay is classed as biochemical, Osedax.
Assay [4] relates to T0193. The experiment in a line: pNP release at […] nm. The assay is classed as biochemical, uncultured Flavobacteriaceae bacterium.
Assay [5] relates to T0191. The experiment in a line: pNP release at […] nm. The assay is classed as biochemical, uncultured Marinifilaceae bacterium.
The next assay has as its system T0204. The experiment in a line: pNP release at […] nm. The assay is classed as biochemical, metagenome.
For assay [6], the system named is T0215. In words: pNP release at […] nm. It is filed as biochemical, uncultured Marinifilaceae bacterium.
In the next assay the test system is T0201. In words: pNP release at […] nm. It is filed as biochemical, metagenome.

As to `CC(=O)N[C@H]1[C@H](Oc2ccc([N+](=O)[O-])cc2)O[C@H](CO)[C@@H](O)[C@@H]1O` [pNP-NAβGlu], the Km in the assay with T0217 came out at 0.028 ± 0.012 mM; in the assay with T0220, 0.042 ± 0.004 mM; in the assay with T0216, 0.025 ± 0.006 mM; in the assay with T0218, 0.134 ± 0.015 mM.

Consider `CCCCCCCCCCCCC/C=C/[C@@H](O)[C@@H](N)CO[C@@H]1O[C@H](CO)[C@@H](O[C@@H]2O[C@H](CO)[C@H](O[C@H]3O[C@H](CO)[C@H](O)[C@H](O)[C@H]3O)[C@H](O)[C@H]2O)[C@H](O)[C@H]1O` [Globotriaosylsphingosine], for which, in the assay on T0215 [1], the Km worked out at 0.058 ± 0.007 mM.

For the molecule `C[C@@H]1O[C@@H](Oc2ccc([N+](=O)[O-])cc2)[C@H](O)[C@H](O)[C@H]1O` [pNP-αRham], the Michaelis constant (Km) in the assay with T0199 is 1.08 ± 0.15 mM.

For `OC[C@H]1O[C@H](O[C@H]2[C@@H](O)[C@@H](CO)OC(O)[C@@H]2O)[C@H](O)[C@@H](O)[C@H]1O` (stereo partly drawn) [Galactose-α-1,3-galactose], the Km in the assay on T0215 [1] is 0.048 ± 0.009 mM.

In the case of `CC(=O)N[C@H]1[C@H]([C@H](O)[C@H](O)CO)O[C@@](O[C@H]2[C@@H](O)[C@@H](CO)O[C@@H](O[C@H]3[C@H](O)[C@@H](O)C(O)O[C@@H]3CO)[C@@H]2O)(C(=O)O)C[C@@H]1O` (stereo partly drawn) [3-Sialyllactose], the results for the Km with T0191 [2] and in the assay with T0193 [3] were 0.031 ± 0.001 mM and 0.082 ± 0.06 mM, respectively.

For the molecule `O=[N+]([O-])c1ccc(O[C@@H]2O[C@H](CO)[C@H](O)[C@H](O)[C@H]2O)cc1` [pNP-βGal], in the assay with T0207, the Km was 0.199 ± 0.032 mM.

Regarding `CC(=O)N[C@H]1[C@H](Oc2ccc([N+](=O)[O-])cc2)O[C@H](CO)[C@H](O)[C@@H]1O` [pNP-NAβGal], the Km with T0218 came to 0.326 ± 0.037 mM.

Turning to `CC(=O)N[C@H]1[C@H]([C@H](O)[C@H](O)CO)O[C@@](Oc2ccc([N+](=O)[O-])cc2)(C(=O)O)C[C@@H]1O` [pNP-Neu5Ac], the values for the Km in the assay with T0193 [4] and in the assay on T0191 [5] were 0.55 ± 0.17 mM and 0.18 ± 0.03 mM, respectively.

For `C[C@H]1O[C@@H](Oc2ccc([N+](=O)[O-])cc2)[C@H](O)[C@@H](O)[C@H]1O` [pNP-β-Fuc], the Km in the assay on T0207 was found to be 0.0118 ± 0.003 mM.

As to `O=[N+]([O-])c1ccc(O[C@@H]2O[C@H](CO)[C@@H](O)[C@H](O)[C@@H]2O)cc1` [pNP-βMan], in the assay on T0204, the Km was determined as 0.127 ± 0.036 mM.

In the case of `CC(=O)N[C@H]1[C@H]([C@H](O)[C@H](O)CO)O[C@@](OC[C@H]2O[C@@H](O[C@H]3[C@H](O)[C@@H](O)C(O)O[C@@H]3CO)[C@H](O)[C@@H](O)[C@H]2O)(C(=O)O)C[C@@H]1O` (stereo partly drawn) [6-Sialyllactose], the Km in the assay with T0191 [2] is 0.053 ± 0.001 mM.

As to `O=[N+]([O-])c1ccc(O[C@H]2O[C@H](CO)[C@H](O)[C@H](O)[C@H]2O)cc1` [pNP-αGal], the values for the Km in the assay with T0215 [6] and with T0201 were 0.062 ± 0.008 mM and 6.22 ± 0.93 mM, respectively.

One may read the Km as the substrate concentration at which the rate is half of its maximum.

The values above are taken from publication PMC8645421 (Computational and Structural Biotechnology Journal, 2021).
